Values of other authors in patent US20040037880A1, “Extended release formulation of divalproex sodium” (priority 2002, published 2004).
Like-named read-outs stand apart in the source and are kept apart here.

elimination half-life (adults): 6 to 17 h
elimination half-life (children): 4 to 14 h
SMILES: CCCC(CCC)C(=O)O [valproic acid]
